Data from ChEMBL document CHEMBL1141049, “Synthesis and structure-activity relationship of N-alkyl Gly-boro-Pro inhibitors of DPP4, FAP, and DPP7” (Bioorg Med Chem Lett, 2005).

Assays:
Dipeptidyl peptidase 4 = Dipeptidyl peptidase 4 (Homo sapiens, UniProt P27487); experiment: Inhibitory activity against human DPP4 using Gly-Pro-AMC in fluorometric assay
Dipeptidyl peptidase 2 [1] = biological target: T1, Dipeptidyl peptidase 2 (Homo sapiens, UniProt Q9UHL4); experiment: Inhibitory activity against human DPP7 using Ala-Pro-AMC in fluorometric assay
Prolyl endopeptidase FAP = biological target: T2, Prolyl endopeptidase FAP (Homo sapiens, UniProt Q12884); experiment: Inhibitory activity against human FAP using Lys-Pro-AMC in fluorimetric assay; No inhibition
T2 sequence (Q12884 whole entry): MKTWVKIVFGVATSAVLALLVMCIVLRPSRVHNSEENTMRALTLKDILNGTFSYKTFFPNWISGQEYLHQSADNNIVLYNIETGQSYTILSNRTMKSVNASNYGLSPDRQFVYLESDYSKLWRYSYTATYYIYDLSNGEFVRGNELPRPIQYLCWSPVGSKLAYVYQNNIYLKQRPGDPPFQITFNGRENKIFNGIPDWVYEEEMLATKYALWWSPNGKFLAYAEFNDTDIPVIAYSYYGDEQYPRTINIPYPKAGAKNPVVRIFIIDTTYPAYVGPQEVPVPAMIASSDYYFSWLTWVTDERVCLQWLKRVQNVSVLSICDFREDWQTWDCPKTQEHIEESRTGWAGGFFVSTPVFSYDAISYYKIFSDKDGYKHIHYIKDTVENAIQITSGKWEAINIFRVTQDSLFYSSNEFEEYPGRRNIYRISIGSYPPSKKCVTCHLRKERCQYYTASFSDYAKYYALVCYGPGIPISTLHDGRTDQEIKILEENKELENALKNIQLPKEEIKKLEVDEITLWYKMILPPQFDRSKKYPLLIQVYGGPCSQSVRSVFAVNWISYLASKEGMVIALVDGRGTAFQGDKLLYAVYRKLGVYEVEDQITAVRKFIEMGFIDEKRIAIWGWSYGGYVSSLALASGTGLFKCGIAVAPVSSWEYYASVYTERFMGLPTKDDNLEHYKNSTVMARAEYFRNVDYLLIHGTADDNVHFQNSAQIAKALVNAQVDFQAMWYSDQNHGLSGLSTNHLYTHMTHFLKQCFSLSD

Dipeptidyl peptidase 2 [2] = biological target: T1, Dipeptidyl peptidase 2; experiment: Inhibitory activity against human DPP7 using Ala-Pro-AMC in fluorometric assay; No inhibition
[3] = biological target: Prolyl endopeptidase FAP (Homo sapiens) (UniProt Q12884); experiment: Inhibition of human FAP using Lys-Pro-AMC in fluorometric assay at 33 uM

Sequence of Dipeptidyl peptidase 4 (P27487 whole entry): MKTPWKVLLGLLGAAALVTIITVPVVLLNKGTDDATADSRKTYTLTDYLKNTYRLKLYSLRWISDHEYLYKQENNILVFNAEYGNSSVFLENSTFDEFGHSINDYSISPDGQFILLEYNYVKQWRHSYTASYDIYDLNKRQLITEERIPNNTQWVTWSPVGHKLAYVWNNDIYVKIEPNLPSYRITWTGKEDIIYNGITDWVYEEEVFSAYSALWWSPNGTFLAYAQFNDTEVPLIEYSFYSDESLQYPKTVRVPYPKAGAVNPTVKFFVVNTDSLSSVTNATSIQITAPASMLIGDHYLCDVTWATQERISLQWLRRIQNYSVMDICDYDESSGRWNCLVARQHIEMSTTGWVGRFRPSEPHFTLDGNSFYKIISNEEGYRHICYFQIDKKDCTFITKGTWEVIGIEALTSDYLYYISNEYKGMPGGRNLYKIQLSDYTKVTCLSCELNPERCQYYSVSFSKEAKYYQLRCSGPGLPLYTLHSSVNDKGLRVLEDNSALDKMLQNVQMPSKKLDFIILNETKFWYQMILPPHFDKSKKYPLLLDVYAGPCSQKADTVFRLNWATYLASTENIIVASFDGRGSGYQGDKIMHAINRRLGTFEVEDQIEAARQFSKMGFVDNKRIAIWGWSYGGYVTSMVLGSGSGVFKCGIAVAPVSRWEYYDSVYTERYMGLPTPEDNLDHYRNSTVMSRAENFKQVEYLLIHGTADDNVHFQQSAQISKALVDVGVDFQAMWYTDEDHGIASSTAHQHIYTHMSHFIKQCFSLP

| Compound | IC50 (Dipeptidyl peptidase 4) [µM] | IC50 (Dipeptidyl peptidase 2 [1]) [µM] | IC50 (Prolyl endopeptidase FAP) | IC50 (Dipeptidyl peptidase 2 [2]) | inhibition [3] [%] |
| --- | --- | --- | --- | --- | --- |
| O=C(CNC1CCCCC1)N1CCC[C@H]1B(O)O | 0.027 | 0.0041 | – | – | – |
| O=C(CNC1CCCCCCCCC1)N1CCC[C@H]1B(O)O | 0.058 | 0.0022 | – | – | – |
| O=C(CNC1CCCC1)N1CCC[C@H]1B(O)O | 0.025 | 0.015 | – | – | – |
| O=C(CNC1C2CC3CC(C2)CC1C3)N1CCC[C@@H]1B(O)O (stereo partly specified) | 0.012 | 0.12 | – | – | – |
| CCCCCC12CCC(NCC(=O)N3CCC[C@H]3B(O)O)(CC1)CC2 | 0.061 | 0.001 | – | – | – |
| O=C(CNC1CC2CCCC1C2)N1CCC[C@H]1B(O)O (stereo partly specified) | 0.025 | 0.008 | – | – | – |
| CC(C)[C@@H](NC1CCCCC1)C(=O)N1CCC[C@H]1B(O)O | 16 | – | Not Active | Not Active | – |
| O=C(CNC1CCCCCC1)N1CCC[C@H]1B(O)O | 0.0078 | 0.0018 | – | – | – |
| O=C(CNC1CCC1)N1CCC[C@H]1B(O)O | 0.075 | 0.14 | – | – | – |
| C[C@@H](N)C(=O)N1CCC[C@H]1B(O)O | – | 0.0063 | – | – | – |
| O=C(CNC1CCCCCCC1)N1CCC[C@H]1B(O)O | 0.027 | 0.004 | – | – | – |
| O=C(CNC1CC1)N1CCC[C@H]1B(O)O | 0.13 | 0.57 | – | – | 30 |
| O=C(CNC12CC3CC(CC(C3)C1)C2)N1CCC[C@@H]1B(O)O | 0.008 | 0.42 | – | – | – |
| CN(CC(=O)N1CCC[C@@H]1B(O)O)C1C2CC3CC(C2)CC1C3 (stereo partly specified) | 1.6 | 4.6 | – | – | – |
| CC12CC3(C)CC(C)(C1)CC(NCC(=O)N1CCC[C@@H]1B(O)O)(C2)C3 | 0.56 | 0.035 | – | – | – |
